Laboratory results reported in patent US9884868B2, “TGF-beta inhibitors” (Rigel Pharmaceuticals, Inc., priority 2015, dated 2018).
Like-named read-outs stand apart in the source and are kept apart here.

Molecular target: HIS-TGF-βR1 T204D (Homo sapiens (Human), UniProt P36897, T204D)
Experiment: HTRF probe displacement assay with HIS-TGF-βR1 T204D
[1] = read-out: TGFbr1 IC50, HTRF probe displacement, 1 nM HIS-TGF-βR1 T204D, 1 hour at room temperature

Sequence of HIS-TGF-βR1 T204D (P36897 34-503 T204D): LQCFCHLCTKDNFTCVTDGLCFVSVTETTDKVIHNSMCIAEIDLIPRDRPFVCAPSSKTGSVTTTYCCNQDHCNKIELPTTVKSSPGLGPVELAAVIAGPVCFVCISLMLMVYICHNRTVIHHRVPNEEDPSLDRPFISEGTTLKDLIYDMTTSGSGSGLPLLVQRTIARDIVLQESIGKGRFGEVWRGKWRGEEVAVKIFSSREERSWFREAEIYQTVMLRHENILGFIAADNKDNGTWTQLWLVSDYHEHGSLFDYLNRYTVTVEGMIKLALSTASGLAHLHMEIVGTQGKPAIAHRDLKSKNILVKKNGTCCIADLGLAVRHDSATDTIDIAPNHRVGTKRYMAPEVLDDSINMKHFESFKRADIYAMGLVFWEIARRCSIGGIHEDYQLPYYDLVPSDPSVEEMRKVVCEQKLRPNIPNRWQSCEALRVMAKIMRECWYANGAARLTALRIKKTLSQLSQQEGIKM

Row | IC50 [1] | IC50 | Structure (SMILES)
1 | 0.9 nM |  | N#Cc1cnc2ccc(-c3c(-c4ccc(F)c(Cl)c4)ncn3CCF)nn12 [34′, 6-(4-(3-chloro-4-fluorophenyl)-1-(2-fluoroethyl)-1H-imidazol-5-yl)imidazo[1,2-b]pyridazine-3-carbonitrile]
2 | 1.1 nM |  | NC(=O)c1cnc2ccc(-c3c(-c4cc(Cl)ccc4F)ncn3CC(F)F)cn12 [234′, 6-(4-(5-chloro-2-fluorophenyl)-1-(2,2-difluoroethyl)-1H-imidazol-5-yl)imidazo[1,2-a]pyridine-3-carboxamide]
3 | 1.5 nM |  | CC(C)(F)Cn1cnc(-c2ccc(F)c(Cl)c2)c1-c1ccc2ncc(C#N)n2n1 [57′, 6-(4-(3-chloro-4-fluorophenyl)-1-(2-fluoro-2-methylpropyl)-1H-imidazol-5-yl)imidazo[1,2-b]pyridazine-3-carbonitrile]
4 | 2.9 nM |  | Fc1ccc(Cl)cc1-c1ncn(CC(F)F)c1-c1ccc2nccn2c1 [222′, 6-(4-(5-chloro-2-fluorophenyl)-1-(2,2-difluoroethyl)-1H-imidazol-5-yl)imidazo[1,2-a]pyridine]
5 | 3.7 nM |  | N#Cc1cnc2ccc(-c3c(-c4cc(Cl)ccc4F)ncn3CC(F)F)cn12 [228′, 6-(4-(5-chloro-2-fluorophenyl)-1-(2,2-difluoroethyl)-1H-imidazol-5-yl)imidazo[1,2-a]pyridine-3-carbonitrile]
6 | 6 nM |  | Cn1cnc(-c2ccc(F)c(Cl)c2)c1-c1ccc2nccn2c1 [181′, 6-(4-(3-chloro-4-fluorophenyl)-1-methyl-1H-imidazol-5-yl)imidazo[1,2-a]pyridine]
7 | 2.7 nM |  | C[C@H](O)Cn1cnc(-c2ccc(F)cc2)c1-c1ccc2ncc(C(N)=O)n2c1 [158′, (S)-6-(4-(4-fluorophenyl)-1-(2-hydroxypropyl)-1H-imidazol-5-yl)imidazo[1,2-a]pyridine-3-carboxamide]
8 | 29.6 nM |  | Cc1nc(-c2ccc(F)cc2)c(-c2ccc3[nH]ncc3c2)n1CC(F)F [Example 273′, 5-(1-(2,2-difluoroethyl)-4-(4-fluorophenyl)-2-methyl-1H-imidazol-5-yl)-1H-indazole]
9 | 55.3 nM |  | CC(C)n1cnc(-c2ccc(F)cc2)c1-c1ccc2ncc(C#N)n2c1 [79′, 6-(4-(4-fluorophenyl)-1-isopropyl-1H-imidazol-5-yl)imidazo[1,2-a]pyridine-3-carbonitrile]
10 | 2.5 nM |  | NC(=O)c1cnc2ccc(-c3c(-c4ccc(F)cc4)ncn3C3CC3)nn12 [109′, 6-(1-cyclopropyl-4-(4-fluorophenyl)-1H-imidazol-5-yl)imidazo[1,2-b]pyridazine-3-carboxamide]
11 | 56.7 nM |  | Fc1ccc(-c2ncn(CC(F)F)c2-c2ccc3ncc(F)n3c2)cc1 [Example 288′, 6-(1-(2,2-difluoroethyl)-4-(4-fluorophenyl)-1H-imidazol-5-yl)-3-fluoroimidazo[1,2-a]pyridine]
12 | 1.8 nM |  | NC(=O)c1cnc2ccc(-c3c(-c4ccc(F)c(F)c4)ncn3CC(F)F)cn12 [232′, 6-(1-(2,2-difluoroethyl)-4-(3,4-difluorophenyl)-1H-imidazol-5-yl)imidazo[1,2-a]pyridine-3-carboxamide]
13 | 6.1 nM |  | NC(=O)c1cnc2ccc(-c3c(-c4ccc(F)cc4)ncn3C3CC(F)(F)C3)nn12 [106′, 6-(1-(3,3-difluorocyclobutyl)-4-(4-fluorophenyl)-1H-imidazol-5-yl)imidazo[1,2-b]pyridazine-3-carboxamide]
14 | 0.8 nM |  | NC(=O)c1cnc2ccc(-c3c(-c4ccc(F)cc4)ncn3CC3CCC3)cn12 [157′, 6-(1-(cyclobutylmethyl)-4-(4-fluorophenyl)-1H-imidazol-5-yl)imidazo[1,2-a]pyridine-3-carboxamide]
15 | 66.7 nM |  | N#Cc1cnc2ccc(-c3c(-c4ccc(F)cc4)ncn3CC(F)F)cn12 [Example 224′, 6-(1-(2,2-difluoroethyl)-4-(4-fluorophenyl)-1H-imidazol-5-yl)imidazo[1,2-a]pyridine-3-carbonitrile]
16 | 2.6 nM |  | CC[C@@H](CO)n1cnc(-c2ccc(F)cc2)c1-c1ccc2ncc(C(N)=O)n2n1 [125′, (S)-6-(4-(4-fluorophenyl)-1-(1-hydroxybutan-2-yl)-1H-imidazol-5-yl)imidazo[1,2-b]pyridazine-3-carboxamide]
17 | 0.6 nM |  | CC(C1CC1)n1cnc(-c2ccc(F)cc2)c1-c1ccc2ncc(C(N)=O)n2c1 (centres unmarked) [167′, 6-(1-(1-cyclopropylethyl)-4-(4-fluorophenyl)-1H-imidazol-5-yl)imidazo[1,2-a]pyridine-3-carboxamide]
18 |  | 6.8 nM | N#Cc1cnc2ccc(-c3c(-c4ccc(F)cc4)ncn3CCC(F)(F)F)nn12 [4′, 6-(4-(4-fluorophenyl)-1-(3,3,3-trifluoropropyl)-1H-imidazol-5-yl)imidazo[1,2-b]pyridazine-3-carbonitrile]
19 | 0.6 nM |  | N#Cc1cnc2ccc(-c3c(-c4ccc(F)c(Cl)c4)ncn3CCC3CCC3)nn12 [40′, 6-(4-(3-chloro-4-fluorophenyl)-1-(2-cyclobutylethyl)-1H-imidazol-5-yl)imidazo[1,2-b]pyridazine-3-carbonitrile]

Row | IC50 [1] | IC50 | Structure (SMILES)
20 | 0.9 nM |  | CC(C)n1cnc(-c2ccc(F)c(Cl)c2)c1-c1ccc2ncc(C(N)=O)n2n1 [116′, 6-(4-(3-chloro-4-fluorophenyl)-1-isopropyl-1H-imidazol-5-yl)imidazo[1,2-b]pyridazine-3-carboxamide]
21 | 73.5 nM |  | N#Cc1cnc2ccc(-c3c(-c4ccccc4C(N)=O)ncn3CC(F)F)nn12 [251′, 2-(5-(3-cyanoimidazo[1,2-b]pyridazin-6-yl)-1-(2,2-difluoroethyl)-1H-imidazol-4-yl)benzamide]
22 | 1.1 nM |  | N=C(NO)c1cnc2ccc(-c3c(-c4ccc(F)cc4)ncn3CC(F)F)nn12 [Example 203′, 6-(1-(2,2-difluoroethyl)-4-(4-fluorophenyl)-1H-imidazol-5-yl)-N-hydroxyimidazo[1,2-b]pyridazine-3-carboximidamide]
23 | 0.8 nM |  | N#Cc1cnc2ccc(-c3c(-c4ccc(F)c(Cl)c4)ncn3CCC3CC3)nn12 [61′, 6-(4-(3-chloro-4-fluorophenyl)-1-(2-cyclopropylethyl)-1H-imidazol-5-yl)imidazo[1,2-b]pyridazine-3-carbonitrile]
24 | 3.2 nM |  | OCCc1cnc2ccc(-c3c(-c4ccc(F)cc4)ncn3CC(F)F)nn12 [Example 217′, 2-(6-(1-(2,2-difluoroethyl)-4-(4-fluorophenyl)-1H-imidazol-5-yl)imidazo[1,2-b]pyridazin-3-yl)ethanol]
25 | 1.6 nM |  | NC(=O)c1cnc2ccc(-c3c(-c4ccc(F)c(Cl)c4)ncn3CCCO)nn12 [142′, 6-(4-(3-chloro-4-fluorophenyl)-1-(3-hydroxypropyl)-1H-imidazol-5-yl)imidazo[1,2-b]pyridazine-3-carboxamide]
26 | 1.9 nM |  | N#Cc1cnc2ccc(-c3c(-c4ccc(F)cc4)ncn3CCCF)nn12 [21′, 6-(4-(4-fluorophenyl)-1-(3-fluoropropyl)-1H-imidazol-5-yl)imidazo[1,2-b]pyridazine-3-carbonitrile]
27 | 5.2 nM |  | COc1cc(-c2ncn(CC(F)F)c2-c2ccc3ncc(C#N)n3n2)ccc1F [262′, 6-(1-(2,2-difluoroethyl)-4-(4-fluoro-3-methoxyphenyl)-1H-imidazol-5-yl)imidazo[1,2-b]pyridazine-3-carbonitrile]
28 | 1.4 nM |  | CC(C)CCn1cnc(-c2ccc(F)c(Cl)c2)c1-c1ccc2ncc(C#N)n2n1 [49′, 6-(4-(3-chloro-4-fluorophenyl)-1-isopentyl-1H-imidazol-5-yl)imidazo[1,2-b]pyridazine-3-carbonitrile]
29 | 20.1 nM |  | NCc1cnc2ccc(-c3c(-c4ccc(F)cc4)ncn3CC(F)F)nn12 [196A′, (6-(1-(2,2-difluoroethyl)-4-(4-fluorophenyl)-1H-imidazol-5-yl)imidazo[1,2-b]pyridazin-3-yl)methanamine]
30 | 2.7 nM |  | CC1(n2cnc(-c3ccc(F)c(Cl)c3)c2-c2ccc3ncc(C#N)n3n2)COC1 [43′, 6-(4-(3-chloro-4-fluorophenyl)-1-(3-methyloxetan-3-yl)-1H-imidazol-5-yl)imidazo[1,2-b]pyridazine-3-carbonitrile]
31 | 88.5 nM |  | CC(CO)n1cnc(-c2ccc(F)cc2)c1-c1ccc2ncc(C#N)n2c1 (centres unmarked) [81′, 6-(4-(4-fluorophenyl)-1-(1-hydroxypropan-2-yl)-1H-imidazol-5-yl)imidazo[1,2-a]pyridine-3-carbonitrile]
32 | 2.2 nM |  | OCc1cnc2ccc(-c3c(-c4ccc(F)cc4)ncn3CC(F)F)nn12 [Example 210′, (6-(1-(2,2-difluoroethyl)-4-(4-fluorophenyl)-1H-imidazol-5-yl)imidazo[1,2-b]pyridazin-3-yl)methanol]
33 | 0.9 nM |  | NC(=O)c1cnc2ccc(-c3c(-c4ccc(F)cc4)nc4n3CCC4)cn12 [Example 283′, 6-(2-(4-fluorophenyl)-6,7-dihydro-5H-pyrrolo[1,2-a]imidazol-3-yl)imidazo[1,2-a]pyridine-3-carboxamide]
34 | 2.1 nM |  | N#Cc1cnc2ccc(-c3c(-c4ccc(F)c(Cl)c4)ncn3C3CC(F)(F)C3)nn12 [53′, 6-(4-(3-chloro-4-fluorophenyl)-1-(3,3-difluorocyclobutyl)-1H-imidazol-5-yl)imidazo[1,2-b]pyridazine-3-carbonitrile]
35 | 5.7 nM |  | NC(=O)c1cnc2ccc(-c3c(-c4ccc(F)cc4)ncn3C[C@@H](O)CO)cn12 [164′, (R)-6-(1-(2,3-dihydroxypropyl)-4-(4-fluorophenyl)-1H-imidazol-5-yl)imidazo[1,2-a]pyridine-3-carboxamide]
36 | 9.1 nM |  | CC(C)(O)Cn1cnc(-c2ccc(F)cc2)c1-c1ccc2ncc(C(N)=O)n2c1 [166′, 6-(4-(4-fluorophenyl)-1-(2-hydroxy-2-methylpropyl)-1H-imidazol-5-yl)imidazo[1,2-a]pyridine-3-carboxamide]
37 | 92.6 nM |  | CC(C)(O)Cn1cnc(-c2ccc(F)cc2)c1-c1ccc2ncc(C#N)n2n1 [26′, 6-(4-(4-fluorophenyl)-1-(2-hydroxy-2-methylpropyl)-1H-imidazol-5-yl)imidazo[1,2-b]pyridazine-3-carbonitrile]
38 | 7.4 nM |  | NC(=O)c1cnc2ccc(-c3c(-c4ccc(F)cc4)ncn3C3COC3)nn12 [126′, 6-(4-(4-fluorophenyl)-1-(oxetan-3-yl)-1H-imidazol-5-yl)imidazo[1,2-b]pyridazine-3-carboxamide]
